# Source: ChEMBL document CHEMBL1201862, “PubChem BioAssay data set” (2004)
# Active and inactive are the calls of the source.
# Tests used:
# [1] = Luminescence Cell-Based Dose Retest to Confirm Inhibitors of Cancer Stem Cells. [Related pubchem assays (depositor defined):AID2717, AID2721]; format: functional; conditions: Homo sapiens
# [2] = viability of HCT116 lacking mutant beta-catenin – cell-based, human colon tumor, dose response (AID 1045); format: functional;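 further: HCT116 colon tumor cells with beta catenin knocked out; cells exposed to compound for 60 hours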
# [3] = viability of PTEN-deleted HCT116 cells – cell-based, HCT116 PTEN knockout, dose response (AID 1047); format: functional;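 further: HCT116 colon tumor cells with PTEN knocked out; cells exposed to compound for 60 hours before readout; potency for loss of cell viability measured by luminescence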
# Phospholipase A2 = Phospholipase A2 (Homo sapiens, UniProt P04054); format: functional;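 further: confirmatory dose-response counterscreen on phospholipase A2, testing hits that came from an ultra-high-throughput screen for ATG4B inhibitors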
# Chain of Phospholipase A2 (P04054 whole entry): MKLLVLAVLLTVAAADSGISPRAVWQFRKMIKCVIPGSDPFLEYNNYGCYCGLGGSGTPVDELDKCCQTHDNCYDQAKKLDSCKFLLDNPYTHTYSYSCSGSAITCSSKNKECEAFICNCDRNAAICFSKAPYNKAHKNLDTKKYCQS
# Cysteine protease ATG4B = target: T1, Cysteine protease ATG4B (Homo sapiens, UniProt Q9Y4P1); format: functional;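 further: Fluorescence-based dose-response confirmation assay measuring inhibition of ATG4B activity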
# T1 sequence (Q9Y4P1 whole entry): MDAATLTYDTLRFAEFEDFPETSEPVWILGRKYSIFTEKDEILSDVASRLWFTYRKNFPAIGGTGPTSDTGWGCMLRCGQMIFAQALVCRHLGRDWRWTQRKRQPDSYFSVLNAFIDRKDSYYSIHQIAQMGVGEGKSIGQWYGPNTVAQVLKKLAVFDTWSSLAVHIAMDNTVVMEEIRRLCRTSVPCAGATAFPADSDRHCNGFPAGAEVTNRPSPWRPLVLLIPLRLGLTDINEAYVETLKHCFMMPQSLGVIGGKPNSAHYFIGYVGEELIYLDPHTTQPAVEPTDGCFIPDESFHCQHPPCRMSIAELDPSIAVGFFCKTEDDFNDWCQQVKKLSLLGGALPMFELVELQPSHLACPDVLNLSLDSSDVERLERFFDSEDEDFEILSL
# [4] = target: T2, Small ubiquitin-related modifier 1 (Homo sapiens, UniProt P63165); assay: SUMO1 protein-protein binding blockers, potency – biochemical, FRET, dose response (AID 624383); format: functional; conditions: read-out: IC50_Mean
# T2 sequence (P63165 whole entry): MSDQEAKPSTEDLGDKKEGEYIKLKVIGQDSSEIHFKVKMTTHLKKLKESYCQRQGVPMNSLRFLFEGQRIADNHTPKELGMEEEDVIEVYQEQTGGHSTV
# [5] = target: T2, Small ubiquitin-related modifier 1; assay: SUMO1 protein interaction blockers, potency – biochemical, fluorescence polarization, uHTS hits, dose response (AID 624382); format: functional; conditions: read-out: IC50_Mean
# cells [6] = format: functional
# A-375 [7] = assay: proliferation inhibition in MITF-low A375 cells – cell-based, cherry-pick samples, set 2, counter-screen for MITF modulator project, dose response (AID 540335); format: functional; conditions: Homo sapiens
# A-375 [8] = assay: MITF: Counter assay: A375 proliferation Measured in Cell-Based System Using Plate Reader - 2084-03_Inhibitor_Dose_DryPowder_Activity. [Related pubchem assays (depositor defined):AID488944]; format: functional; conditions: Homo sapiens
# BJ [9] = assay: BJ-TERT-LT-ST fibroblast viability loss – cell-based, RAS-independent, luminescence, dose response (AID 1935); format: functional; conditions: Homo sapiens;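 further: BJ fibroblasts immortalized with TERT plus LT and ST oncogenes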
# BJ [10] = assay: BJ-TERT fibroblast viability loss – cell-based, RAS-independent, luminescence, dose response (AID 1933); format: functional; conditions: Homo sapiens
# INS1 = assay: INS-1E survival protection against cytokine death – cell-based, luminescence, retest, dose response (AID 449756); format: functional; conditions: Rattus norvegicus;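 further: cell death triggered by IL-1 beta plus TNF-alpha plus IFN-gamma mixture; protective hits raise ATP signal compared with cytokine alone wells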
# cells [11] = format: functional, cell-based; conditions: HEK-CNG
# Galanin receptor type 3 = target: T3, Galanin receptor type 3 (Homo sapiens, UniProt O60755); assay: Fluorescence-based cell-based primary high throughput dose response assay to identify antagonists of the Galanin Receptor 3 (GalR3).; format: functional
# T3 sequence (O60755 whole entry): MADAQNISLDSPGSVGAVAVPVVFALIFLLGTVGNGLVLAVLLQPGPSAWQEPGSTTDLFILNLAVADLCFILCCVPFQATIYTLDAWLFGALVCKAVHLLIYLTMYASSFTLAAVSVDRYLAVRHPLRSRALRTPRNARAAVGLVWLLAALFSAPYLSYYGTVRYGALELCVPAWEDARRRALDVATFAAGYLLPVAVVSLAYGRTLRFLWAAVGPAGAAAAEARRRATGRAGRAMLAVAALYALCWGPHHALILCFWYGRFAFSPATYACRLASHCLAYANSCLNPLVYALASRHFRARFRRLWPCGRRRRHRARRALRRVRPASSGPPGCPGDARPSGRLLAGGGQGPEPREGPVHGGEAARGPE
# [12] = DRD fibroblast viability loss – cell-based, non-viral oncogenic, luminescence, dose response (AID 1934); format: functional; conditions: Homo sapiens
# BJ [13] = assay: cells; format: functional, cell-based; conditions: Homo sapiens
# [14] = target: 26S proteasome non-ATPase regulatory subunit 14 (Homo sapiens, UniProt O00487); assay: inhibition of proteasome subunit RPN11 – biochemical, fluorescence polarization, uHTS hits, confirmation (AID 602368); format: functional
# Chain of 26S proteasome non-ATPase regulatory subunit 14 (O00487 whole entry): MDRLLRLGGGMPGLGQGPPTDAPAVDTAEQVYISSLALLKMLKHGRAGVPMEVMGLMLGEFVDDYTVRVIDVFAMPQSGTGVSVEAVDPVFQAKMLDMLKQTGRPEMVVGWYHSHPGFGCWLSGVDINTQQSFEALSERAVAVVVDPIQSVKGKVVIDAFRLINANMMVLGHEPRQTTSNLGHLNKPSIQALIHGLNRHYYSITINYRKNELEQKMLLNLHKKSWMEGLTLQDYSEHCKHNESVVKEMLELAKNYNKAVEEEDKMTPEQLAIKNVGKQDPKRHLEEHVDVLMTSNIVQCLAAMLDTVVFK
# Prothrombin = Prothrombin (Bos taurus, UniProt P00735); assay: thrombin protease inhibitors – biochemical, fluorescence polarization, uHTS hits, dose response (AID 602369); format: functional
# [15] = target: T4, RNA-binding protein pos-1 (Caenorhabditis elegans, UniProt G5EF15); assay: disruptors of C. elegans POS-1 RNA interaction – biochemical, fluorescence polarization, dose response (AID 1964);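 further: purified POS-1 fused to maltose binding protein made in E. coli; potency of compounds blocking POS-1 binding to fluorescent RNA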
# T4 sequence (G5EF15 whole entry): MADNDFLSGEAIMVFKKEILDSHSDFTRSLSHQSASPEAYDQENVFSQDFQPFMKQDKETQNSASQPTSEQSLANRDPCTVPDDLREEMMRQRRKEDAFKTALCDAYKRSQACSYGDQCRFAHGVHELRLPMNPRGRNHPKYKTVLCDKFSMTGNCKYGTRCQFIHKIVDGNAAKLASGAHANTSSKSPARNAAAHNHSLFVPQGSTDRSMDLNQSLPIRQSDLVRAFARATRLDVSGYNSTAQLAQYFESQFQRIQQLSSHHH
# [16] = target: T5, Zinc finger protein mex-5 (Caenorhabditis elegans, UniProt Q9XUB2); assay: potency of MEX-5 RNA-binding blockers – biochemical, C. elegans, fluorescence polarization, dose response (AID 1960)
# T5 sequence (Q9XUB2 whole entry): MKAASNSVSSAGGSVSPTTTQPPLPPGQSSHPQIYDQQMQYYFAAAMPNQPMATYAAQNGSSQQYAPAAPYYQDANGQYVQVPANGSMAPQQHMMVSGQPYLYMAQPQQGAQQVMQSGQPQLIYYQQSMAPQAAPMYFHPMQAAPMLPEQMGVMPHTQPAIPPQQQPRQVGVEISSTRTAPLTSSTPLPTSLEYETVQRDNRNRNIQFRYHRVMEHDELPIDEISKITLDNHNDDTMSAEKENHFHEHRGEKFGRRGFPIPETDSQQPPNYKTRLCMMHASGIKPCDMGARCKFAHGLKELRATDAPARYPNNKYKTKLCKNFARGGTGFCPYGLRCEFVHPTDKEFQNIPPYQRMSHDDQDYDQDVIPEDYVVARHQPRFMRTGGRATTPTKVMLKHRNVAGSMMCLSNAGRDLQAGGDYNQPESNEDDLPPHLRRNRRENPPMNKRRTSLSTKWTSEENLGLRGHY
# [17] = target: 72 kDa type IV collagenase (Homo sapiens, UniProt P08253); assay: Dose Response validation of uHTS RPN11 inhibitor hits using a MMP-2 Fluorescence assay.; format: functional
# Chain of 72 kDa type IV collagenase (P08253 whole entry): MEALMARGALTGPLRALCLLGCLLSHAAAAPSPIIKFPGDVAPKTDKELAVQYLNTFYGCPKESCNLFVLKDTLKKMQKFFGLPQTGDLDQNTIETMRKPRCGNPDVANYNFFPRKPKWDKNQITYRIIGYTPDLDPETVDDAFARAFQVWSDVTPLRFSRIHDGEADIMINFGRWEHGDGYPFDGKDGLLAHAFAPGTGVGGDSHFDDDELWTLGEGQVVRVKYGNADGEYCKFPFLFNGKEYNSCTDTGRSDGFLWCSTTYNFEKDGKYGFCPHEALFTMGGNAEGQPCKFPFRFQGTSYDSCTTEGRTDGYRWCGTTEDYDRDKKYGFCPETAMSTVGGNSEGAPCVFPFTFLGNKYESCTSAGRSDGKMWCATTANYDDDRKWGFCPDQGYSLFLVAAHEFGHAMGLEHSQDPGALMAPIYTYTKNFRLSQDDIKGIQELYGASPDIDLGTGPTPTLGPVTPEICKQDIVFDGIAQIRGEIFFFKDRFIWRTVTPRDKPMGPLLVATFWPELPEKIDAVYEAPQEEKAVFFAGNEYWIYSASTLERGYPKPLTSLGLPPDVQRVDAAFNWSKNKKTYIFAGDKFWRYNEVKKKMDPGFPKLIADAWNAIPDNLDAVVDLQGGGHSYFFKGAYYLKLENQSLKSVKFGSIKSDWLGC
# [18] = target: T6, Endoribonuclease toxin MazF (Escherichia coli K-12, UniProt P0AE70); assay: substrate-only fluorescence increase artefacts – biochemical, single-stranded RNase substrate, counter-screen for MazEF activator project, dose response (AID 588502); format: functional
# T6 sequence (P0AE70 whole entry): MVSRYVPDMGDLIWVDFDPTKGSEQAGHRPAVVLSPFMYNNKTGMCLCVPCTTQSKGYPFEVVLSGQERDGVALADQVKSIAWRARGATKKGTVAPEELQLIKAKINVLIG
# [19] = target: T7, Sentrin-specific protease 1 (Homo sapiens, UniProt Q9P0U3); assay: SENP1 catalytic domain blockers, concentration series – biochemical, kinetic FRET, dose response (AID 651697); format: functional; conditions: read-out: IC50_Mean
# T7 sequence (Q9P0U3 whole entry): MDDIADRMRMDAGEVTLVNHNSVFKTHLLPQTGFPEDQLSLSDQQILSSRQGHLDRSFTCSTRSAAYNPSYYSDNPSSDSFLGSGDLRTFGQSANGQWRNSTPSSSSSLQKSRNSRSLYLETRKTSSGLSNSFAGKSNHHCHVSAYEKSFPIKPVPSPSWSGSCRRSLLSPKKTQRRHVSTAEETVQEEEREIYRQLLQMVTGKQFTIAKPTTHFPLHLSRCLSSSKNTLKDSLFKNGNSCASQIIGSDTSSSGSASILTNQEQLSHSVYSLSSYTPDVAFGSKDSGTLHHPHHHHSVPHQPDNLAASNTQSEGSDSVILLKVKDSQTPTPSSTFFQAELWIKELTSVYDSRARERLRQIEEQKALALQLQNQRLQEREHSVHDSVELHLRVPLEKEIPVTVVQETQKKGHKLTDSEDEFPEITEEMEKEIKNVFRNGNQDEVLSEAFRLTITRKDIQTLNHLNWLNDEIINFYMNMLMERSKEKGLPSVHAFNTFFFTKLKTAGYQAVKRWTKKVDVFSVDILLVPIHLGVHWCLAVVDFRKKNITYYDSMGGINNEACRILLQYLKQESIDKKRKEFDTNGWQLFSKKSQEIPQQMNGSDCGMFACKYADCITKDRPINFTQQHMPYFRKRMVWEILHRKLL
# [20] = target: T6, Endoribonuclease toxin MazF; assay: activation of MazEF endoribonuclease cleavage – biochemical, fluorescence, single-stranded RNA substrate, uHTS hits, dose response (AID 588481); format: functional
# [21] = target: T7, Sentrin-specific protease 1; assay: Dose response confirmation of small molecule inhibitors of the catalytic domain of the SUMO protease, SENP1 in a FRET assay.; format: functional; conditions: read-out: IC50_Mean
# [22] = microbe, parasite or virus in culture; format: functional; conditions: Mycobacterium tuberculosis
# [23] = off-target signal loss in HeLa-CEM21 co-culture – HeLa F-luc CTL cells, cherry-picked, counter-screen for HIV-1 Env fusion inhibitor project, dose response (AID 652040); format: functional, cell-based;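 further: potency for signal decrease marking cytotoxic or nonspecific inhibition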
# [24] = blockers of HIV-1 ZM109 envelope-driven cell-cell fusion – HeLa effector, CEM target cells, luciferase, cherry-pick, dose response (AID 652058); format: functional, cell-based;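 further: luciferase signal from HIV-1 Env mediated cell-cell fusion of effector and target cells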
# [25] = HIV-1 AD8 envelope cell-cell fusion blockers – cherry-pick, dose response (AID 652062); format: functional, cell-based;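 further: luciferase signal from cell-cell fusion driven by HIV-1 clade B AD8 Env; potency is for inhibitors of fusion seen as a drop in luminescence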
# [26] = blockers of HIV-1 envelope-mediated cell-cell fusion – cherry-pick, dose response (AID 652057); format: functional, cell-based
compound,measurement,setting,value
C=C(C)Cn1c(SCC(=O)N/N=C/c2c(O)ccc3ccccc23)nc2ccccc2c1=O,AC50,[1],3.05 µM (active)
same,EC50,[2],16.6 µM (active)
same,EC50,[3],19.5 µM (active)
same,IC50,Phospholipase A2,7.98 µM (active)
same,IC50,Cysteine protease ATG4B,13.3 µM (active)
Clc1ccccc1CN1CCN(c2ccccc2Cl)CC1,IC50,Phospholipase A2,6.52 µM (active)
same,IC50,Cysteine protease ATG4B,11.5 µM (active)
CCOC(=O)C1=C(COc2ccccc2)NC(=O)NC1c1ccc(Cl)cc1 (stereo unspecified),IC50,[4],15.7 µM (active)
same,IC50,[5],> 66.6 µM (inactive)
O=C(N/N=C/C=C/c1ccccc1)c1ccccn1,IC50,cells [6],11.2 µM (active)
same,AC50,A-375 [7],> 35 µM (active)
same,AC50,A-375 [8],> 35 µM (active)
CC(C)(C)c1cc([N+](=O)[O-])cc(C(C)(C)C)c1O,EC50,BJ [9],> 75 µM (inconclusive)
same,EC50,BJ [10],> 150 µM (not active)
same,AC50,INS1,4.45 µM (active)
same,EC50,cells [11],> 29.9 µM (inactive)
same,IC50,Galanin receptor type 3,2 µM (active)
same,EC50,[12],22 µM (active)
same,EC50,BJ [13],> 150 µM (inconclusive)
CCCc1ccc(OC(=O)c2cccs2)cc1,IC50,Phospholipase A2,10.2 µM (active)
same,IC50,Cysteine protease ATG4B,10.7 µM (active)
Cc1cc(/C=C(/C#N)c2nc3ccccc3[nH]2)c(C)n1-c1ccccc1C(=O)O,IC50,[14],26.2 µM (active)
same,IC50,Prothrombin,25.5 µM (active)
same,EC50,[15],> 300 µM (not active)
same,EC50,[16],> 300 µM (not active)
same,IC50,[17],> 100 µM (inactive)
c1cc(Nc2cccc3nccnc23)c2nccnc2c1,EC50,[18],> 99 µM (inactive)
same,IC50,[19],25.6 µM (inactive)
same,EC50,[20],> 99 µM (inactive)
same,IC50,[21],24.5 µM (inactive)
same,CC50,[22],31.7 µM (active)
CC(C)C(NC(=O)OCc1ccccc1)C(=O)OCC(=O)N1CCCCC1 (stereo unspecified),AC50,A-375 [7],> 35 µM (active)
same,AC50,A-375 [8],> 35 µM (active)
O=C1C=C(c2cccc(Cl)c2O)C[C@@H](c2ccc(Cl)cc2)C1,IC50,[19],2.66 µM (active)
same,IC50,[21],1.15 µM (active)
CC[C@@]1(C(=O)OC)N[C@H](CN(C)C(=O)c2ccc(C(C)(C)C)cc2)[C@@H]2C(=O)N(Cc3ccccc3)C(=O)[C@@H]21,AC50,[23],18.3 µM (active)
same,AC50,[24],8.17 µM (active)
same,AC50,[25],10.1 µM (active)
same,AC50,[26],6.06 µM (active)
CC1=Nc2ccccc2/C1=C\c1nc(-c2ccccc2)oc1O,IC50,[14],4.18 µM (active)
same,IC50,Prothrombin,7.22 µM (active)
same,IC50,[17],> 100 µM (inactive)
CC(C)Cn1c(N)c(C(=O)COC(=O)/C=C/c2ccccc2)c(=O)n(C)c1=O,EC50,cells [11],> 29.9 µM (inactive)
same,IC50,Galanin receptor type 3,> 29.9 µM (inactive)
O=C(CSc1nc2ccccc2c(=O)n1-c1ccc(Cl)cc1)N/N=C/C=C/c1ccccc1[N+](=O)[O-],IC50,Phospholipase A2,1.18 µM (active)
same,IC50,Cysteine protease ATG4B,8.92 µM (active)
